Starred links: 1 amine or outer side, 2 acyl side, 3 side chain; linkers in the order of their positions; H or OH if unused. Non-standard residues stand in square brackets, D forms with d. Residues, ends and D or L forms follow the SMILES beside them. ξ: configuration not given here. *: point of attachment. Phe(4-Br) = N[CH](Cc1ccc(Br)cc1)C(=O)O; Bta = N[C@@H](Cc1csc2ccccc12)C(=O)O; ξW = NC(Cc1c[nH]c2ccccc12)C(=O)O; Cha = N[CH](CC1CCCCC1)C(=O)O; Suc = O=C(CCC(=O)[*:2])[*:1]; MeOSuc = COC(=O)CCC(=O)*; Cbz = O=C(OCc1ccccc1)*; Bn = c1ccc(C*)cc1

This assay deals with endothelin converting enzyme (ECE) (Sus scrofa, UniProt F1SU04). The experiment in a line: "ECE" assay with porcine aortic "ECE" prep, fluorogenic substrate Suc-Ile-Ile-Trp-MCA. Type of assay: biochemical. The note with it: porcine aortic endothelial cell ECE prep; 80 μM Suc-Ile-Ile-Trp-MCA; 15-20 min preincubation; overnight at 37° C.; pH 7.0; AMC fluorescence. The method, then:
IC50 values were determined as follows:
Porcine Aortic "ECE" Prep
Porcine aortas (22-25) were obtained fresh from a local slaughterhouse and delivered in cold PBS on ice. The aortas were cut open, rinsed with cold PBS and the endothelial cell layer scraped into cold PBS using a scalpel. The endothelial cells were pelleted by centrifugation, rinsed once with cold PBS, and repelleted. The pellet was lysed by addition of 10 volumes of 10 mM Tris-HCl, pH 7.0, containing protease inhibitors and DTS, followed by brief sonication and homogenization. The lysate was centrifuged at 100,000 g for 1 hour and the supernatant applied to a MONOQ FPLC anion exchange column equilibrated in 10 mM Tris-HCl, pH 7.0 (buffer A) which was then developed with an increasing gradient of NaCl in buffer A. The active fractions were aliquoted and stored at -70° C.
The ECE assay was performed in 96-well microplates in a total volume of 200μ/well. The assay cocktail contains 100 mM Tris-HCl, pH 7.0, 20 mM CaCl2, 80 μM substrate (Suc-Ile-Ile-Trp-MCA), enzyme and test compounds. The test compounds were preincubated with the enzyme for 15-20 minutes before initiation of the assay by addition of the substrate. The assay was incubated overnight at 37° C. and the fluorescence intensity caused by the release of AMC was determined using a fluorescence microplate reader (EX360 nm/EM460 nm). IC50 values for compounds were determined by constructing concentration-effect curves for the inhibition of enzyme activity. Concentrations on the linear portion of the inhibition curve were used to determine the IC50 utilizing a Hill plot.

endothelin converting enzyme (ECE), sequence (F1SU04 entry or part of it): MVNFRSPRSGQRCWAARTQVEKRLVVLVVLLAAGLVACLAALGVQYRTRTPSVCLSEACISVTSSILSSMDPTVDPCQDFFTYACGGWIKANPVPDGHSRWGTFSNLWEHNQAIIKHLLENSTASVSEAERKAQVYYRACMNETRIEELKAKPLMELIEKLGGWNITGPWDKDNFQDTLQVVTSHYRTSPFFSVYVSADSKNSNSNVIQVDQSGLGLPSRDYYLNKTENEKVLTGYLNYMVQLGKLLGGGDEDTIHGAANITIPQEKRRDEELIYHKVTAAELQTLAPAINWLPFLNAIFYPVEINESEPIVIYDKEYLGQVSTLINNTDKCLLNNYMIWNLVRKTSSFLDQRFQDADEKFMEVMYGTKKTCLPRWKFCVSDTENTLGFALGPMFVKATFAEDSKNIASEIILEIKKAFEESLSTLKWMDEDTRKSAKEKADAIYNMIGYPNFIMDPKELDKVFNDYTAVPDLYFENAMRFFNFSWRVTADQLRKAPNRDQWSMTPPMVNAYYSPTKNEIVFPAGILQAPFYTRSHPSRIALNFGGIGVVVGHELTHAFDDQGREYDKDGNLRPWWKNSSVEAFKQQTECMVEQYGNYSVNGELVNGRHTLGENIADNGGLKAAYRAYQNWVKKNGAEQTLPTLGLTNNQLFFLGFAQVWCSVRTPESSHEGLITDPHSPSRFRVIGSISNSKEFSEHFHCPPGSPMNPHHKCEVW

As to `CC[C@H](C)[C@H](NC(=O)CCCCCNC(=O)CCCCC1SCC2NC(=O)NC21)C(=O)N[C@H](C(=O)NC(Cc1c[nH]c2ccccc12)C(OC)OC)[C@@H](C)CC` (stereo partly drawn) [Example 66, N-[[[5-(hexahydro-2-oxo-1H-thieno[3,4-d]imidazol-4-yl)valeramido]hexanoyl]-L-isoleucyl-L-isoleucine-L-N-[1-dimethoxymethyl]2-(1H-indol-3-yl)ethyl]amide], inhibition was half-maximal at 300 nM (IC50).
With `CC[C@H](C)[C@H](NC(=O)CC(c1ccccc1)c1ccccc1)C(=O)N[C@H](C(=O)NC(C=O)Cc1c[nH]c2ccccc12)[C@@H](C)CC` (some centres unmarked) [Example 58], the IC50 came out at 100 nM.
Take `O=C[C@H](Cc1ccc(Br)cc1)NC(=O)[C@H](Cc1ccc(OCc2ccccc2)cc1)NC(=O)[C@H](Cc1ccc(OCc2ccccc2)cc1)NC(=O)OCc1ccccc1` [Example 98, N-Benzyloxycarbonyl-S-(O-benzyl)tyrosyl-S-(O-benzyl)tyrosyl-1-S-formyl-1-(4-bromophenylmethyl)-methylamide] (Cbz-Tyr(Bn)-Tyr(Bn)-[Phe(4-Br)]-aldehyde): inhibition was half-maximal at 1000 nM (IC50).
With `CC[C@H](C)[C@H](NC(=O)OCc1ccccc1)C(=O)N[C@H](C(=O)N[C@H](C=O)Cc1ccccc1)[C@@H](C)CC` [Example 16, N-Benzyloxycarbonyl-S-isoleucyl-S-isoleucine 1-S-formyl-2-phenyl-ethylamide] (Cbz-Ile-Ile-Phe-aldehyde) the figure was 400 nM.
Then “N-Benzyloxycarbonyl-S-p-bromophenylalanyl-S-2'naphthylalanyl-1-S-formyl-1-(1H-indol-3-yl-methyl)-methylamide [Example 38]”, with 8 nM; and `CC[C@H](C)[C@H](NC(=O)CCC(=O)O)C(=O)N[C@H](C(=O)N[C@H](C=O)Cc1c[nH]c2ccccc12)[C@@H](C)CC` [Example 61] (Suc-Ile-Ile-Trp-aldehyde), with 800 nM; and `O=CC(Cc1ccc(Br)cc1)NC(=O)C(Cc1ccc(OCc2ccccc2)cc1)NC(=O)C(CC1CCCCC1)NC(=O)OCc1ccccc1` (stereo not drawn) [Example 97, N-Benzyloxycarbonyl-S-cyclohexylalanyl-S-(O-benzyl)tyrosyl-1-S-formyl-1-(4-bromophenylmethyl)-methylamide] (Cbz-[Cha]-Tyr(Bn)-[Phe(4-Br)]-aldehyde; configuration not given here), with 10000 nM.
`O=CC(Cc1c[nH]c2ccccc12)NC(=O)C(Cc1ccccc1)NC(=O)C(Cc1ccccc1)NC(=O)OCc1ccccc1` (stereo not drawn) [Example 32, N-Benzyloxycarbonyl-S-phenylalanyl-S-phenylalanyl-1-S-formyl-1-(1H-indol-3-yl-methyl)-methylamide] (Cbz-Phe-Phe-Trp-aldehyde; configuration not given here) showed an IC50 of 100 nM.
Consider `O=CC(Cc1c[nH]c2ccccc12)NC(=O)[C@H](Cc1cccc2ccccc12)NC(=O)[C@H](Cc1ccc(Br)cc1)NC(=O)CCCCC1SCC2NC(=O)NC21` (stereo partly drawn) [Example 93, N-[[5-(hexahydro-2-oxo-1H-thieno[3,4-d]imidazol-4-yl)pentanoyl]-L-p-bromophenylalanyl-L-1-naphthylalanyl-L-N-[1-formyl]2-(1H-indol-3-yl)ethyl]amide], for which inhibition was half-maximal at 2 nM (IC50).
Then “N-Benzyloxycarbonyl-L-isoleucyl-L-isoleucine-L-N-[1pyruvoyl]2-(phenyl)ethyl]amide [Example 52]”, with 2000 nM; and “N-Benzyloxycarbonyl-L-isoleucyl-L-isoleucine-L-N-[1-formylhydroxymethyl-2-(phenylethyl]amide) [Example 47]”, with 5000 nM; and `NC(=O)NN=CC(Cc1c[nH]c2ccccc12)NC(=O)[C@H](Cc1c[nH]c2ccccc12)NC(=O)[C@H](Cc1c[nH]c2ccccc12)NC(=O)OCc1ccccc1` (some centres unmarked) [Example 75], with 40 nM.
Take “N-[[5-(hexahydro-2-oxo-1H-thieno[3,4-d]imidazol-4-yl]valeryl-L-isoleucyl-L- isoleucine-L-N-[1-formyl]2-(1H-indol-3-yl)ethyl]amide [Example 63]”: half-maximal inhibition (IC50) was put at 30 nM.
Take `CC[C@H](C)[C@H](NC(=O)OCc1ccccc1)C(=O)N[C@H](C(=O)N[C@H](C=O)Cc1csc2ccccc12)[C@@H](C)CC` [Example 18, N-Benzyloxycarbonyl-S-isoleucyl-S-isoleucine 1-S-formyl-2-(benzo-thien-3-yl)ethylamide] (Cbz-Ile-Ile-[Bta]-aldehyde): the IC50 was determined as 600 nM.
Then `CC[C@H](C)[C@H](NC(=O)OCc1ccccc1)C(=O)N[C@H](C(=O)N[C@H](CNC(=O)CN1C(=O)C=CC1=O)Cc1c[nH]c2ccccc12)[C@@H](C)CC` [Example 84], with 1000 nM; and `CCOc1ccc(CC(NC(=O)C(Cc2ccc(OCc3ccccc3)cc2)NC(=O)OCc2ccccc2)C(=O)NC(C=O)Cc2ccc(Br)cc2)cc1` (stereo not drawn) [Example 99, N-Benzyloxycarbonyl-S-(O-benzyl)tyrosyl-S-(O-ethyl)tyrosyl-1-S-formyl-1-(4-bromophenylmethyl)-methylamide] (Cbz-Tyr(Bn)-Tyr(Et)-[Phe(4-Br)]-aldehyde; configuration not given here), with 20 nM.
On to “N-Benzyloxycarbonyl-L-isoleucyl-L-isoleucine-L-N-[1-[2-oxiranylcarbonyl]-2- (phenyl)ethyl]amide [Example 45]”, for which the IC50 was found to be 200 nM.
`CC[C@H](C)[C@H](NC(=O)OCc1ccccc1)C(=O)N[C@H](C(=O)NC(CNC(=O)CO)Cc1c[nH]c2ccccc12)[C@@H](C)CC` (stereo partly drawn) [Example 86, N-(benzyloxy)carbonyl-L-isoleucyl-L-isoleucine-L-N-[1-[(2-hydroxyacetamido]methyl]-2-(1H-indol-3-yl)ethyl]amide] yielded an IC50 of 10000 nM.
On to `CC[C@H](C)[C@H](NC(=O)[C@H](Cc1ccccc1)NC(=O)OCc1ccccc1)C(=O)N[C@H](C=O)[C@@H](C)CC` [Example 20, N-Benzyloxycarbonyl-S-phenylalanyl-S-isoleucyl-1-S-formyl-1-(S)-1-methylpropylmethylamide] (Cbz-Phe-Ile-Ile-aldehyde), for which the IC50 was 1100 nM.
With `CC[C@H](C)[C@H](NC(=O)CCC(=O)OC)C(=O)N[C@H](C(=O)NC(C=O)Cc1c[nH]c2ccccc12)[C@@H](C)CC` (stereo partly drawn) [Example 74] (MeOSuc-Ile-Ile-[ξW]-aldehyde) the figure was 80 nM.

What is called IC50 is the point on the concentration scale where inhibition reaches its midpoint.

Source of the values: patent US6235717A, “Pharmaceutical compounds” (Glaxo Wellcome Inc., priority 1993, dated 2001).
